# Test system: ring stage parasites (Pf)
# Assay: Parasite lactate dehydrogenase (LDH) growth assay (Parasite Assay, PfLDH Assay)
# Format: cell-based, P. falciparum
# Details: Plasmodium falciparum, 72 h, Table 3; 72 hours growth, LDH readout; read-out: EC50
# Protocol: The parasite stock was maintained at 4% haematocrit in RPMI-Hepes media buffered with sodium bicarbonate and supplemented with 5% heat inactivated human serum and 0.5% albumax. […] On the day of assay set up, a blood smear of the parasite culture was Giemsa stained and counted. The parasitemia was adjusted to 0.7% rings and the haematocrit was diluted to 2% in RPMI-Hepes media buffered with sodium bicarbonate and supplemented with 5% heat inactivated human serum and 0.5% albumax. 30 μl of diluted parasites are then added into 10 μl of media+compound in pre-prepared Greiner TC assay plates. Parasite assay plates were placed in gassed humidified boxes in single layer and allowed to incubate at 37° C. for 72 hours. After 72 hours growth, assay plates were sealed with parafilm and frozen flat, in single file at −80° C. overnight. On the following day, assay plates were allowed to thaw at room temperature for 4 hours to which an LDH assay was performed to measure parasite growth.
row,SMILES,EC50
1,CCC1(CC)CC(=O)N(C[C@@H]2[C@@H](C(=O)N[C@H]3c4ccccc4OC(C)(C)[C@H]3O)C2(F)F)C(=N)N1 [Example 18A],39 nM
2,CCC1(CC)CC(=O)N([C@H](CCOC)[C@H]2C[C@@H]2C(=O)N[C@@H]2c3ccccc3OCC2(C)C)C(=N)N1 [Example 19A],28 nM
3,CCC1(CC)CC(=O)N([C@H](CCOC)[C@H]2C[C@@H]2C(=O)N[C@H]2c3ccccc3OCC2(C)C)C(=N)N1 [Example 19B],4.2 nM
4,COCC[C@H]([C@H]1C[C@@H]1C(=O)N[C@H]1CC(C)(C)Oc2ccccc21)N1C(=N)N[C@](C)(C(C)C)CC1=O [Example 20],5.3 nM
5,COCC[C@H]([C@H]1C[C@@H]1C(=O)N[C@H]1C[C@@H](C(F)(F)F)Oc2ccccc21)N1C(=N)N[C@](C)(C(C)C)CC1=O [Example 21A],260 nM
6,COCC[C@H]([C@H]1C[C@@H]1C(=O)N[C@@H]1C[C@@H](C(F)(F)F)Oc2ccccc21)N1C(=N)N[C@](C)(C(C)C)CC1=O [Example 21B],1 nM
7,COCC[C@H]([C@H]1C[C@@H]1C(=O)N[C@H]1CCOc2ccccc21)N1C(=N)N[C@](C)(C(C)C)CC1=O [Example 22],44 nM
8,COCC[C@H]([C@H]1C[C@@H]1C(=O)NC1CC(C)(C)Oc2ccccc21)N1C(=N)NC(C)(C)CC1=O (stereo partly shown) [Example 23A],16 nM
9,COCC[C@H]([C@H]1C[C@@H]1C(=O)N[C@H]1C[C@@H](C(F)(F)F)Oc2ccccc21)N1C(=N)NC(C)(C)CC1=O [Example 24A],3.4 nM
10,COCC[C@H]([C@H]1C[C@@H]1C(=O)N[C@@H]1C[C@@H](C(F)(F)F)Oc2ccccc21)N1C(=N)NC(C)(C)CC1=O [Example 24B],2 nM
11,COCC[C@@H]([C@H]1C[C@@H]1C(=O)N[C@H]1C[C@@H](C(F)(F)F)Oc2ccccc21)N1C(=N)NC(C)(C)CC1=O [Example 24C],120 nM
12,CC1(C)CC(=O)N([C@H](c2cccnc2)[C@H]2C[C@@H]2C(=O)N[C@H]2CC(C)(C)Oc3ccccc32)C(=N)N1 [Example 26],4.7 nM
13,CC1(C)CC(=O)N([C@H](c2cccnc2)[C@H]2C[C@@H]2C(=O)N[C@@H]2c3ccccc3OC(C)(C)[C@H]2O)C(=N)N1 [Example 27],78 nM
14,CCC1(CC)CC(=O)N(C[C@H]2C(C)[C@@H]2C(=O)N[C@H]2C[C@@H](C(F)(F)F)Oc3ccccc32)C(=N)N1 (stereo partly shown) [Example 28A],12 nM
15,CCC1(CC)CC(=O)N(CC2C(C(=O)N[C@H]3C[C@@H](C(F)(F)F)Oc4ccccc43)C2(C)C)C(=N)N1 (stereo partly shown) [Example 31A],215 nM
16,CCC1(CC)CC(=O)N(CC2C(C(=O)N[C@H]3C[C@H](C(F)(F)F)Oc4ccccc43)C2(C)C)C(=N)N1 (stereo partly shown) [Example 31B],213 nM
17,CC1(C)CC(=O)N([C@H](c2cccnc2)[C@H]2C[C@@H]2C(=O)N[C@H]2C[C@H](C(F)(F)F)Oc3ccccc32)C(=N)N1 [Example 32],1.8 nM
18,CCC1(CC)CC(=O)N(C[C@H]2C(C)[C@@H]2C(=O)N[C@@H]2c3ccccc3C[C@H]2O)C(=N)N1 (stereo partly shown) [Example 33],76 nM
19,CCC1(CC)CC(=O)N(C[C@@H]2[C@@H](C(=O)N[C@H]3CC(C)(C)Oc4ccccc43)C2(C)C)C(=N)N1 [Example 34],286 nM

row,SMILES,EC50
1,COc1ccc([C@H]([C@H]2C[C@@H]2C(=O)N[C@H]2C[C@H](C(F)(F)F)Oc3ccccc32)N2C(=N)NC(C)(C)CC2=O)cn1 [Example 37],1.2 nM
2,COc1ccc([C@H]([C@H]2C[C@@H]2C(=O)N[C@@H]2c3ccccc3OC(C)(C)[C@H]2O)N2C(=N)NC(C)(C)CC2=O)cn1 [Example 39],10.1 nM
3,COc1cncc([C@H]([C@H]2C[C@@H]2C(=O)N[C@H]2CC(C)(C)Oc3ccccc32)N2C(=N)NC(C)(C)CC2=O)c1 [Example 40],3.1 nM
4,COc1cncc([C@H]([C@H]2C[C@@H]2C(=O)N[C@H]2C[C@H](C(F)(F)F)Oc3ccccc32)N2C(=N)NC(C)(C)CC2=O)c1 [Example 41],1.1 nM
5,COc1cncc([C@H]([C@H]2C[C@@H]2C(=O)N[C@@H]2c3ccccc3OC(C)(C)[C@H]2O)N2C(=N)NC(C)(C)CC2=O)c1 [Example 42],18.4 nM
6,CC1(C)CC(=O)N([C@H](c2cccnc2)[C@@H]2[C@@H](C(=O)N[C@H]3C[C@H](C(F)(F)F)Oc4ccccc43)C2(C)C)C(=N)N1 [Example 43A],4 nM
7,CC1(C)CC(=O)N([C@@H](c2cccnc2)[C@@H]2[C@@H](C(=O)N[C@H]3C[C@H](C(F)(F)F)Oc4ccccc43)C2(C)C)C(=N)N1 [Example 43B],37 nM
8,CCC1(CC)CC(=O)N([C@@H](c2cccnc2)[C@@H]2[C@@H](C(=O)N[C@H]3C[C@H](C(F)(F)F)Oc4ccccc43)C2(C)C)C(=N)N1 [Example 44A],8.3 nM
9,CCC1(CC)CC(=O)N([C@H](c2cccnc2)[C@@H]2[C@@H](C(=O)N[C@H]3C[C@H](C(F)(F)F)Oc4ccccc43)C2(C)C)C(=N)N1 [Example 44B],0.9 nM
10,CC1(C)CC(=O)N([C@H](c2ccc(C#N)cc2)[C@H]2C[C@@H]2C(=O)N[C@H]2CC(C)(C)Oc3ccccc32)C(=N)N1 [Example 45A],2.8 nM
11,CC1(C)CC(=O)N([C@@H](c2ccc(C#N)cc2)[C@H]2C[C@@H]2C(=O)N[C@H]2CC(C)(C)Oc3ccccc32)C(=N)N1 [Example 45B],220 nM
12,CC1(C)CC(=O)N([C@H](c2ccc(C#N)cc2)[C@H]2C[C@@H]2C(=O)N[C@@H]2c3ccccc3OC(C)(C)[C@H]2O)C(=N)N1 [Example 46],2.5 nM
13,CC1(C)CC(=O)N([C@@H](c2ccc(C#N)cc2)[C@H]2C[C@@H]2C(=O)N[C@H]2C[C@H](C(F)(F)F)Oc3ccccc32)C(=N)N1 [Example 47A],155 nM
14,CC1(C)CC(=O)N([C@H](c2ccc(C#N)cc2)[C@H]2C[C@@H]2C(=O)N[C@H]2C[C@H](C(F)(F)F)Oc3ccccc32)C(=N)N1 [Example 47B],0.9 nM
15,CCC1(CC)CC(=O)N([C@H](c2cccnc2)[C@@H]2[C@@H](C(=O)N[C@H]3CC(C)(C)Oc4ccccc43)C2(C)C)C(=N)N1 [Example 48A],2.7 nM
16,CCC1(CC)CC(=O)N([C@@H](c2cccnc2)[C@@H]2[C@@H](C(=O)N[C@H]3CC(C)(C)Oc4ccccc43)C2(C)C)C(=N)N1 [Example 48B],7.4 nM
17,CC1(C)CC(=O)N(C(c2cccnc2)[C@@H]2[C@@H](C(=O)N[C@H]3CC(C)(C)Oc4ccccc43)C2(C)C)C(=N)N1 (stereo partly shown) [Example 49A],20 nM
18,CC1(C)CC(=O)N([C@H](c2cccc(C#N)c2)[C@H]2C[C@@H]2C(=O)N[C@H]2CC(C)(C)Oc3ccccc32)C(=N)N1 [Example 50],3 nM

# Same assay, conditions: Table 3; 72 hours growth, LDH readout; read-out: EC50
row,SMILES,EC50
1,COCC[C@H]([C@H]1C[C@@H]1C(=O)NC1CC(C)(C)Oc2ccccc21)N1C(=N)NC(C)(C)CC1=O (stereo partly shown) [Example 23B],15 nM
2,CCC1(CC)CC(=O)N(C[C@H]2C(C)[C@@H]2C(=O)N[C@H]2C[C@@H](C(F)(F)F)Oc3ccccc32)C(=N)N1 (stereo partly shown) [Example 28B],14 nM
3,CC1(C)CC(=O)N(C(c2cccnc2)[C@@H]2[C@@H](C(=O)N[C@H]3CC(C)(C)Oc4ccccc43)C2(C)C)C(=N)N1 (stereo partly shown) [Example 49B],14 nM

# From patent US20240131028A1, “CHEMOVACCINATION AGAINST PLASMODIUM INFECTION WITH SELECTIVE PLASMEPSIN X INHIBITORS” (Merck Sharp & Dohme LLC, priority 2021, published 2024)
